Measurements as given in US20250186398A1, “CONTINUOUS DOSING REGIMEN FOR TREATMENT OF A CONDITION OF THE EYE” (EYEPOINT PHARMACEUTICALS, INC., priority 2022, published 2025).

Tests used:
[1] = Intravitreal Pharmacokinetic Study of vorolanib insert (Example 5A); assay type: in vivo, Male Dutch Belted Rabbits
Experimental: An Intravitreal Pharmacokinetic Study was performed in Male Dutch Belted Rabbits. The objective of this study was to characterize the plasma and ocular tissue pharmacokinetics of a vorolanib insert following bilateral intravitreal injection on Day 1. Animals were evaluated up to 24 months following placement of the intravitreal insert.
The low dose group (1) received 3 inserts per eye for a total dose of 630 μg per eye. The high dose group (2) animals received 6 inserts per eye given in 2 separate injections (3 inserts per injection) for a total dose of 1,260 μg per eye.
Prior to each scheduled sacrifice point, one whole blood sample was collected from a targeted 2 animals per group via puncture of a marginal ear vein. Samples were tested for levels of vorolanib and its metabolite. Two animals per group were euthanized on day 1 at 6, 12, 24 and 48 hours, on days 7 and 14, and at 1, 2, 4, 6, 8, 16 and 24 months.

[2] = Intravitreal Pharmacokinetic Study of vorolanib insert, 12 months (Example 5B); assay type: in vivo, Dutch Belted Rabbits
Experimental: Another Intravitreal Pharmacokinetic Study was performed in Dutch Belted Rabbits. The objective of this study was to evaluate the plasma and ocular pharmacokinetics of a vorolanib insert following bilateral intravitreal injection in rabbit eyes. Animals were evaluated up to 12 months following placement of the intravitreal insert.
Dutch Belted rabbits were administered vorolanib inserts in each eye by intravitreal injection. Group 1 eyes received 1 insert containing 643 μg of vorolanib, and Group 2 eyes received 2 inserts containing 900 μg total. Blood samples were collected at 2, 7, 14, and 28 days and then once monthly for months 2-12. Inserts were recovered at 2, 7, and 14 days and then at 1, 2, 4, 6, 8, 10, and 12 months. Residual vorolanib levels were determined in all explants using high-performance liquid chromatography. The vorolanib release rate was estimated based on residual levels in the explants. Plasma and ocular tissues were separated and analyzed for vorolanib and its metabolite using liquid chromatography-mass spectrometry.

[3] = 18 month intravitreal toxicity and plasma pharmacokinetics study (Example 6); assay type: in vivo
Experimental: An 18 month intravitreal toxicity study for the insert was also performed in 80 Dutch Belted rabbits (40 male and 40 female). Animals were evaluated for a period of 6 and 18 months following placement of intravitreal inserts. The objective was to characterize the ocular toxicity, plasma pharmacokinetics and biodegradation of a vorolanib insert following bilateral intravitreal injection.
The tables below describe the group assignments and dose levels. For the toxicology groups, animals were sacrificed at 6 months and 18 months. For the plasma pharmacokinetic analysis, blood samples were collected at Days 1, 3, and 7 and then 1, 2, 3, 4, 5, 6, 12, 14, 16 and 18 Months.
The placebo group (1) animals received two placebo inserts by injection in each eye. The low dose group (2) animals received 2 inserts in each eye. The mid dose group (3) animals received 3 inserts in each eye given in 2 separate injections. The high dose group (4) animals received 4 inserts in each eye given in 2 separate injections (2 inserts/injection). The highest dose group (5) animals received 6 inserts in each eye given in 2 separate injections (3 inserts/injection).
At each scheduled timepoint, whole blood was collected via puncture of a marginal ear vein. Samples were analyzed for clinical pathology and plasma pharmacokinetics. Animals were euthanized according to the schedules described above. A complete gross necropsy was performed on all animals that were sacrificed or found dead during the study. Organs were weighed and tissues collected. Ocular tissues were collected for histopathology only.

[4] = test system: Laser-Induced Choroidal Neovascularization (CNV); assay: Swine (Mini-pig) Model of Laser-Induced Choroidal Neovascularization, fluorescein angiography (Example 7); assay type: in vivo
Experimental: Safety and efficacy of a vorolanib insert were evaluated in a Swine (Mini-pig) Model of Laser-Induced Choroidal Neovascularization (CNV). The primary objective of this study was to evaluate the long-term safety and inhibition of vascular permeability and neovascularization in a laser-induced model of choroidal neovascularization (CNV) using a vorolanib insert in swine.
On the day of lasering (Groups 1-4) animals were treated with an 810 nm diode laser delivered through an indirect ophthalmoscope. Approximately 6 single laser spots were placed between retinal veins. Both eyes underwent laser treatment according to the schedule in the table above.
On the day of intravitreal injections animals were anesthetized and the eyes were aseptically prepared. […] Animals were allowed to recover normally from the procedure. The pigs were given a topical drop of antibiotic ophthalmic solution 4-6 hours later, and then BID for 2 additional days with at least 6 hours between doses. Animals were dosed on either Day 0 immediately following laser CNV induction or 7 days prior to laser CNV induction according to the schedule in the table above.
Flourescein Angiography was done in both eyes in anesthetized animals at the timepoints as indicated in the experimental design table.

Molecule | dose proportionality of maximum observed concentrations in vitreous and retina/choroid ([1]; 630 vs 1,260 μg per eye) | vorolanib plasma levels ([1]; PK study, intravitreal inserts) | change in plasma levels ([1]; after 99 days) | drop in mean vorolanib concentration in ocular tissues and plasma ([2]; between months 8 and 10) | vorolanib exposure rank order ([2]; ocular tissues and plasma) | concentrations in target ocular tissues (choroid and retina) relative to IC50 for VEGFR2 ([2]; through 8 months) | vorolanib levels in the vitreous and the retina/choroid relative to IC50 for VEGFR ([3]; at the time points tested) | vorolanib plasma levels ([3]; intravitreal inserts) | adverse findings attributed to vorolanib ([3]; up to 6 inserts per eye) | efficacy in this model ([4]; 2 mg IVT) | reduction in Corrected Total Lesion Fluorescence (CTLF) from Day 7 to Day 28, rank among Groups 1-4 ([4]; Group 1, 2 mg, 50 μL/eye IVT, Day 0)
Cc1[nH]c(/C=C2\C(=O)Nc3ccc(F)cc32)c(C)c1C(=O)N[C@H]1CCN(C(=O)N(C)C)C1 [vorolanib, (S,Z)—N-(1-(Dimethylcarbamoyl)pyrrolidin-3-yl)-5-((5-fluoro-2-oxoindolin-3-ylidene)methyl)-2,4-dimethyl-1H-pyrrole-3-carboxamide] | nearly dose proportional | low pg/mL range | No apparent change | 85%-99% | choroid=retina=vitreous>aqueous humor>plasma | above the IC50 for VEGFR2 | significantly above the IC50 for VEGFR | low pg/mL range | No adverse findings |  | 
aflibercept: VEGF inhibitor (Regeneron), intravitreal standard of care, comparator in swine CNV model |  |  |  |  |  |  |  |  |  | normal amounts of efficacy | largest reduction
